Measured values reported in patent US12077483B2, “Modified amine lipids” (Intellia Therapeutics, Inc., priority 2018, dated 2024).
Where “and” joins values, the source holds several entries; their conditions need not be identical. Equal entries are not always repeated.

What was measured:
[1] = pKa of amine lipid by TNS fluorescence; assay type: physicochemical; settings: probe TNS (6-(p-toluidino)-2-naphthalenesulfonic acid sodium salt), unformulated amine lipid in ethanol, sodium phosphate buffers -9.0
Method in brief: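 pKa derived from a sigmoidal fit of normalized TNS fluorescence (321 nm excitation, 448 nm emission) versus pH. Lipid from ethanol stock diluted to about 100 μM final in 0.1 M phosphate buffers, pH 4.5–9.0.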

mouse TTR = assay: Serum TTR ELISA in mice after LNP delivery; assay type: in vivo
Method in brief: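 Mouse TTR in serum was quantified by ELISA (samples diluted e.g. 10,000- and/or 2,500-fold) 6–7 days after dosing CD-1 females with LNP, typically 0.1 mpk. Values are reported relative to vehicle-treated controls (%).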

[2] = RNA encapsulation efficiency of LNP (Ribogreen fluorescence assay); assay type: physicochemical; settings: for % E: Table 13, LNP sgRNA:Cas9 mRNA 1:2 w/w
Method in brief: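 LNP samples diluted in 1× TE with or without 0.2% Triton-X 100 for total or free RNA, stained ~10 min at room temperature in the dark with RiboGreen; fluorescence ex 488/em 525 nm against RNA standard curves. Encapsulation efficiency = (Total RNA−Free RNA)/Total RNA.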

[3] = LNP average particle size and polydispersity by dynamic light scattering; assay type: physicochemical
Method in brief: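 LNPs were diluted in PBS to a count rate of about 200-400 kcps and measured by DLS on a Zetasizer. Size is the intensity-weighted Z-average diameter, reported with number-average diameter, and the polydispersity index describes the spread of sizes around the mean.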

[4] = mouse serum, relative to TSS control of same experiment, dose 0.03 mpk
[5] = mouse serum, relative to TSS control of same experiment, dose 0.1 mpk
[6] = LNP with the compound as amine lipid, Expt. 7, composition ratio (mol %) 50/9/38/3 for Cmpnd 49, 50/10/38.5/1.5 for the others
[7] = LNP with the compound as amine lipid, Expt. 3, composition ratio (mol %) 50/9/38/3 for Cmpnd 49, 50/10/38.5/1.5 for the others
[8] = Table 13, LNP sgRNA:Cas9 mRNA 1:2 w/w, N/P 6.0
[9] = LNP with the compound as amine lipid, Expt. 1, composition ratio (mol %) 50/9/38/3 for Cmpnd 49, 50/10/38.5/1.5 for the others
[10] = Table 7, G00282, CD-1 female mice i.v., dose 0.1 mpk
[11] = Table 7, G00282, CD-1 female mice i.v., dose 0.1 mpk, percentage of vehicle control
[12] = Table 7, G00282, CD-1 female mice i.v., dose 0.3 mpk
[13] = Table 7, G00282, CD-1 female mice i.v., dose 0.3 mpk, percentage of vehicle control
[14] = LNP with the compound as amine lipid, Expt. 6, composition ratio (mol %) 50/9/38/3 for Cmpnd 49, 50/10/38.5/1.5 for the others
[15] = LNP with the compound as amine lipid, Expt. 10, composition ratio (mol %) 50/9/38/3 for Cmpnd 49, 50/10/38.5/1.5 for the others
[16] = Table 6, LNP with G00282 sgRNA:Cas9 mRNA 1:1 w/w
[17] = Table 10, LNP with G00534 sgRNA:Cas9 mRNA 1:2 w/w
[18] = LNP with the compound as amine lipid, Expt. 4, composition ratio (mol %) 50/9/38/3 for Cmpnd 49, 50/10/38.5/1.5 for the others
[19] = Table 4, LNP with G00282 sgRNA:Cas9 mRNA 1:1 w/w, N/P 6.0

Question: Which pKa [1] does the source give for `CCCCC/C=C\C/C=C\CCCCCCCC(=O)OCC(COC(=O)CCCCCCC/C=C\C/C=C\CCCCC)OC(=O)CCC(CCCCCCCC)OC(=O)OCCCN1CCCC1` (centres unmarked) [Compound 36, 2-((4-(((3-(pyrrolidin-1-yl)propoxy)carbonyl)oxy)dodecanoyl)oxy)propane-1,3-diyl (9Z,9′Z,12Z,12′Z)-bis(octadeca-9,12-dienoate)] here?
Answer: 6.13

Question: What about the “Serum TTR % TSS” value (mouse TTR; [4]) of the same compound?
Answer: 75.785 % TSS

Question: And the “Serum TTR % TSS” value (mouse TTR; [5])?
Answer: 43.824 % TSS

Question: And the “Encapsulation (%)” value [2, 6]?
Answer: 98%

Question: And the “Num Ave Size (nm)” value [3, 6]?
Answer: 58.34 nm

Question: And the PDI [3, 6]?
Answer: 0.058

Question: And the “Z-Ave Size (nm)” value [3, 6]?
Answer: 75.9 nm

Question: For `CCCCC/C=C\C/C=C\CCCCCCCC(=O)OCC(COC(=O)CCCCCCC/C=C\C/C=C\CCCCC)OC(=O)CCC(CCCCC)OC(=O)NCCN1CCCC1` (centres unmarked) [Compound 72, 2-((4-(((2-(pyrrolidin-1l-yl)ethyl)carbamoyl)oxy)nonanoyl)oxy)propane-1,3-diyl (9Z,9′Z,12Z,12′Z)-bis(octadeca-9,12-dienoate)], which pKa [1] is on record?
Answer: 7.01

Question: What about the “Serum TTR % TSS” value (mouse TTR; [4]) of the same compound?
Answer: 66.92 % TSS

Question: And the “Serum TTR % TSS” value (mouse TTR; [5])?
Answer: 26.43 % TSS

Question: And the “Encapsulation (%)” value [2, 7]?
Answer: 98%

Question: And the “% E” value ([2]; N/P 6.0)?
Answer: 94%

Question: What about the “Num Ave Size (nm)” value [3, 7] of the same compound?
Answer: 88.38 nm

Question: What about the PDI [3, 7] of the same compound?
Answer: 0.02

Question: What about the “Z-Ave Size (nm)” value [3, 7] of the same compound?
Answer: 106.80 nm

Question: And the “Number Average [nm]” value [3, 8]?
Answer: 91.47 nm

Question: What about the PDI [3, 8] of the same compound?
Answer: 0.018

Question: What about the “Z-Ave Size (nm)” value [3, 8] of the same compound?
Answer: 111.4 nm

Question: Which pKa [1] does the source give for `CCCCC/C=C\C/C=C\CCCCCCCC(=O)OCC(COC(=O)CCCCCCC/C=C\C/C=C\CCCCC)OC(=O)CCC(CCCCCCCCCCCC)OC(=O)OCCCN(C)C` (centres unmarked) [Compound 1, 2-((4-(((3-(dimethylamino)propoxy)carbonyl)oxy)hexadecanoyl)oxy)propane-1,3-diyl (9Z,9′Z,12Z,12′Z)-bis(octadeca-9,12-dienoate)] here?
Answer: 6.35

Question: What about the “Serum TTR” value (mouse TTR; Table 3, guide G282, CD-1 female mice, 0.1 mpk i.v., Exp. 1, 8, 9, 10) of the same compound?
Answer: 671 µg/mL

Question: And the “Serum TTR % TSS” value (mouse TTR; Table 3, guide G282, CD-1 female mice, 0.1 mpk i.v., percentage of vehicle control (TSS))?
Answer: 76% TSS

Question: What about the “Serum TTR % TSS” value (mouse TTR; [5]) of the same compound?
Answer: 48.49 % TSS

Question: What about the “Encapsulation (%)” value [2, 9] of the same compound?
Answer: 99%

Question: What about the “Num Ave Size (nm)” value [3, 9] of the same compound?
Answer: 54.84 nm

Question: And the PDI [3, 9]?
Answer: 0.04

Question: And the “Z-Ave Size (nm)” value [3, 9]?
Answer: 68.63 nm

Question: With `CCCCC/C=C\C/C=C\CCCCCCCC(=O)OCC(COC(=O)CCCCCCC/C=C\C/C=C\CCCCC)OC(=O)CCC(CCCCCCCC)OC(=O)NCCN(C)CC` (centres unmarked) [Compound 34, 2-((4-(((2-(ethyl(methyl)amino)ethyl)carbamoyl)oxy)dodecanoyl)oxy)propane-1,3-diyl (9Z,9′Z,12Z,12′Z)-bis(octadeca-9,12-dienoate)] as the compound, how does the pKa [1] read?
Answer: 6.36

Question: And the “Serum TTR” value (mouse TTR; [10])?
Answer: 170 µg/mL

Question: What about the “Serum TTR % TSS” value (mouse TTR; [11]) of the same compound?
Answer: 21% TSS

Question: And the “Serum TTR” value (mouse TTR; [12])?
Answer: 45 µg/mL

Question: And the “Serum TTR % TSS” value (mouse TTR; [13])?
Answer: 5% TSS

Question: What about the “Serum TTR % TSS” value (mouse TTR; mouse serum, relative to TSS control of same experiment, dose 0.03 mpk, 0.03 mg/kg) of the same compound?
Answer: 55% TSS and 85.10 % TSS

Question: And the “Encapsulation (%)” value [2, 9]?
Answer: 98%

Question: And the “Encapsulation (%)” value [2, 14]?
Answer: 98%

Question: And the Encapsulation (%) [2, 15]?
Answer: 98%

Question: And the “Encapsulation (%)” value [2, 16]?
Answer: 98%

Question: And the “Encapsulation (%)” value [2, 17]?
Answer: 93%

Question: What about the “% E” value ([2]; N/P 6.0) of the same compound?
Answer: 97%

Question: What about the “Num Ave Size (nm)” value [3, 9] of the same compound?
Answer: 76.32 nm

Question: What about the PDI [3, 9] of the same compound?
Answer: 0.02

Question: And the “Z-Ave Size (nm)” value [3, 9]?
Answer: 93.66 nm

Question: What about the “Num Ave Size (nm)” value [3, 14] of the same compound?
Answer: 73 nm

Question: And the PDI [3, 14]?
Answer: 0.03

Question: What about the “Z-Ave Size (nm)” value [3, 14] of the same compound?
Answer: 89.00 nm

Question: What about the “Num Ave Size (nm)” value [3, 15] of the same compound?
Answer: 77 nm

Question: What about the PDI [3, 15] of the same compound?
Answer: 0.03

Question: And the “Z-Ave Size (nm)” value [3, 15]?
Answer: 95 nm

Question: What about the “Num Ave Size (nm)” value [3, 16] of the same compound?
Answer: 71.97 nm

Question: What about the PDI [3, 16] of the same compound?
Answer: 0.015

Question: And the “Z-Ave Size (nm)” value [3, 16]?
Answer: 86.45 nm

Question: What about the “Num Avg Size (nm)” value [3, 17] of the same compound?
Answer: 76.08 nm

Question: And the PDI [3, 17]?
Answer: 0.052

Question: What about the “Z-Avg Size (nm)” value [3, 17] of the same compound?
Answer: 96.43 nm

Question: And the “Number Average [nm]” value [3, 8]?
Answer: 75.88 nm

Question: And the PDI [3, 8]?
Answer: 0.009

Question: And the “Z-Ave Size (nm)” value [3, 8]?
Answer: 93.01 nm

Question: What does the source list for `CCCCC/C=C\C/C=C\CCCCCCCC(=O)OCC(COC(=O)CCCCCCC/C=C\C/C=C\CCCCC)OC(=O)CCC(CCCCCCCCCCCC)OC(=O)OCCCN1CCCC1` (centres unmarked) [Compound 5, 2-((4-(((3-(pyrrolidin-1-yl)propoxy)carbonyl)oxy)hexadecanoyl)oxy)propane-1,3-diyl (9Z,9′Z,12Z,12′Z)-bis(octadeca-9,12-dienoate)]?
Answer: pKa [1]: 6.25; Serum TTR (mouse TTR; [10]): 549 µg/mL; Serum TTR % TSS (mouse TTR; [11]): 67% TSS; Serum TTR (mouse TTR; [12]): 233 µg/mL; Serum TTR % TSS (mouse TTR; [13]): 28% TSS; Encapsulation (%) [2, 16]: 99%; Num Ave Size (nm) [3, 16]: 62.64 nm; PDI [3, 16]: 0.009; Z-Ave Size (nm) [3, 16]: 76.02 nm

Question: What does the source list for `CCCCC/C=C\C/C=C\CCCCCCCC(=O)OCC(COC(=O)CCCCCCC/C=C\C/C=C\CCCCC)OC(=O)CCC(CCCCCCCC)OC(=O)NCCN1CCCC1` (centres unmarked) [Compound 51, 2-((4-(((2-(pyrrolidin-1-yl)ethyl)carbamoyl)oxy)dodecanoyl)oxy)propane-1,3-diyl (9Z,9′Z,12Z,12′Z)-bis(octadeca-9,12-dienoate)]?
Answer: pKa [1]: 6.37; Serum TTR % TSS (mouse TTR; [5]): 9.32 % TSS; Encapsulation (%) [2, 7]: 98%; Encapsulation (%) [2, 15]: 98%; % E ([2]; N/P 6.0): 98%; Num Ave Size (nm) [3, 7]: 80.57 nm; PDI [3, 7]: 0.02; Z-Ave Size (nm) [3, 7]: 96.78 nm; Num Ave Size (nm) [3, 15]: 82 nm; PDI [3, 15]: 0.02; Z-Ave Size (nm) [3, 15]: 98 nm; Number Average [nm] [3, 8]: 80 nm; PDI [3, 8]: 0.009; Z-Ave Size (nm) [3, 8]: 97.21 nm

Question: Which results are given for `CCCCC/C=C\C/C=C\CCCCCCCC(=O)OCC(COC(=O)CCCCCCC/C=C\C/C=C\CCCCC)OC(=O)CCC(CCCCCCCCCCCC)OC(=O)NCCN(C)CC` (centres unmarked) [Compound 7, 2-((4-(((2-(ethyl(methyl)amino)ethyl)carbamoyl)oxy)hexadecanoyl)oxy)propane-1,3-diyl (9Z,9′Z,12Z,12′Z)-bis(octadeca-9,12-dienoate)]?
Answer: pKa [1]: 6.36; Serum TTR (mouse TTR; Table 3, guide G282, CD-1 female mice, 0.1 mpk i.v., Exp. 1, 8, 9, 10, 0.1 mg/kg): 270 µg/mL and 271 µg/mL; Serum TTR % TSS (mouse TTR; Table 3, guide G282, CD-1 female mice, 0.1 mpk i.v., percentage of vehicle control (TSS), 0.1 mg/kg): 31% TSS and 33% TSS; Serum TTR % TSS (mouse TTR; [4]): 58% TSS; Serum TTR % TSS (mouse TTR; [5]): 10% TSS; Encapsulation (%) [2, 18]: 98%; Encapsulation (%) [2, 19]: 97%; Num Ave Size (nm) [3, 18]: 73.07 nm; PDI [3, 18]: 0.002; Z-Ave Size (nm) [3, 18]: 87.61 nm; Num Ave Size (nm) [3, 19]: 68.39 nm; PDI [3, 19]: 0.033; Z-Ave Size (nm) [3, 19]: 85.09 nm
